According to ChEMBL document CHEMBL4428052, “Substrate-Guided Design of Selective FXIIa Inhibitors Based on the Plant-Derived Momordica cochinchinensis Trypsin Inhibitor-II (MCoTI-II) Scaffold” (J Med Chem, 2016):
Peptide text beside a SMILES is read from it.

Columns and labels:
[1] = target: Coagulation factor X (Homo sapiens, UniProt P00742); test: Inhibition of factor 10a (unknown origin) using Ac-QRSRpNA as substrate incubated for 30 mins measured for 7 mins by morrison plot analysis
[2] = target: Urokinase-type plasminogen activator (Homo sapiens, UniProt P00749); test: Inhibition of uPA (unknown origin) incubated for 30 mins measured for 7 mins by morrison plot analysis
[3] = species: Homo sapiens; test: Selectivity ratio of Ki for human plasma kallikrein to Ki for factor 12a (unknown origin)
[4] = target: Prothrombin (Homo sapiens, UniProt P00734); test: Inhibition of thrombin (unknown origin) using Ac-ATPRpNA as substrate incubated for 30 mins measured for 7 mins by morrison plot analysis
[5] = species: Homo sapiens; test: Selectivity ratio of Ki for factor 10a (unknown origin) to Ki for factor 12a (unknown origin)
[6] = species: Homo sapiens; test: Selectivity ratio of Ki for factor 12a (unknown origin) to Ki for factor 10a (unknown origin)
[7] = target: T1, Coagulation factor XII (Homo sapiens, UniProt P00748); test: Inhibition of factor 12a (unknown origin) using Ac-QRFRpNA as substrate incubated for 30 mins measured for 7 mins by morrison plot analysis
T1 sequence (P00748 whole entry): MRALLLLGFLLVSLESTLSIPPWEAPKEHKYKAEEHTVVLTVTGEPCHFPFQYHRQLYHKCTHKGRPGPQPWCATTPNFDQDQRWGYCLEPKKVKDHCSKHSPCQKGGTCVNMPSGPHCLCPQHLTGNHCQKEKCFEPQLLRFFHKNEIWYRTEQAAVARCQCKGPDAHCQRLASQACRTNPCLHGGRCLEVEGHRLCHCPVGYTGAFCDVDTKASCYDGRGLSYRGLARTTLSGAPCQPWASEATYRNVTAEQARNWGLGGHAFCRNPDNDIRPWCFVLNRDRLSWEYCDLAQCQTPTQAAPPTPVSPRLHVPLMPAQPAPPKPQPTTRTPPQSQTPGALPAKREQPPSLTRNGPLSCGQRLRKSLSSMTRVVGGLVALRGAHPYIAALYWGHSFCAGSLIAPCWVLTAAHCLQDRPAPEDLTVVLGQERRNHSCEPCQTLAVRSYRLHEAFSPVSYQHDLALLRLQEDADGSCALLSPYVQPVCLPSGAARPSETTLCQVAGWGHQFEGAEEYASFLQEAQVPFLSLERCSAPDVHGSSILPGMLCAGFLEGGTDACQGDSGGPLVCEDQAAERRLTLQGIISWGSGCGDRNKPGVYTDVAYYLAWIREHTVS

Coagulation factor X, sequence (P00742 41-179 limits assumed): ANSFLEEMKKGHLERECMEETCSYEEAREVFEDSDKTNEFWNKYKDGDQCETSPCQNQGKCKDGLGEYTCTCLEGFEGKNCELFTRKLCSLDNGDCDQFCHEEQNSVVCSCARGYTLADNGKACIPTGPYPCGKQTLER
Coagulation factor X, sequence (P00742 235-488 limits assumed): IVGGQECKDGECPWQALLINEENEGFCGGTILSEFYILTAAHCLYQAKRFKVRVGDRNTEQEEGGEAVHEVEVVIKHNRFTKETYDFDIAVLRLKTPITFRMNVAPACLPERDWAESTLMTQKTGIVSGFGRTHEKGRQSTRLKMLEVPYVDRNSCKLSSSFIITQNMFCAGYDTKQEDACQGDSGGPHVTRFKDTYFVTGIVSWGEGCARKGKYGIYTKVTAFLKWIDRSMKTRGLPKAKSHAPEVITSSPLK

Ki [1] [nM]	Ki [2] [µM]	Ratio Ki [3]	Ki [4] [µM]	Ratio Ki [5]	Ratio Ki [6]	Ki [7] [nM]	SMILES
> 100000	> 50	9	> 50	–	–	–	CC[C@H](C)[C@@H]1NC(=O)[C@H](CCCNC(=N)N)NC(=O)[C@H](Cc2ccccc2)NC(=O)[C@H](NC(=O)[C@H](CCC(N)=O)NC(=O)CNC(=O)[C@@H](N)CCCCN)CSSC[C@H]2NC(=O)[C@H](C)NC(=O)CNC(=O)[C@@H]3CCCN3C(=O)[C@@H]3CSSC[C@H](C(=O)NCC(=O)N[C@@H](CO)C(=O)NCC(=O)N[C@@H](CO)C(=O)N[C@@H](CC(=O)O)C(=O)O)NC(=O)[C@H](Cc4ccc(O)cc4)NC(=O)CNC(=O)[C@H](CC(N)=O)NC(=O)CNC(=O)[C@H](CCCNC(=N)N)NC(=O)[C@H](CSSC[C@H](NC(=O)[C@H](CCCCN)NC(=O)[C@H](CCCCN)NC(=O)[C@H](Cc4c[nH]c5ccccc45)NC1=O)C(=O)N[C@@H](CCCNC(=N)N)C(=O)N[C@@H](CCCNC(=N)N)C(=O)N[C@@H](CC(=O)O)C(=O)N[C@@H](CO)C(=O)N[C@@H](CC(=O)O)C(=O)N3)NC(=O)[C@H]([C@@H](C)CC)NC2=O
460	> 10	–	> 10	4	–	–	CC[C@H](C)[C@@H]1NC(=O)[C@H](CCCNC(=N)N)NC(=O)[C@H](Cc2ccccc2)NC(=O)[C@H](NC(=O)[C@H](CCC(N)=O)NC(=O)CNC(=O)CN)CSSC[C@H]2NC(=O)[C@H](C)NC(=O)CNC(=O)[C@@H]3CCCN3C(=O)[C@@H]3CSSC[C@H](C(=O)NCC(=O)N[C@@H](CO)C(=O)NCC(=O)N[C@@H](CO)C(=O)N[C@@H](CC(=O)O)C(=O)O)NC(=O)[C@H](Cc4ccc(O)cc4)NC(=O)CNC(=O)[C@H](CC(N)=O)NC(=O)CNC(=O)[C@H](CCCNC(=N)N)NC(=O)[C@H](CSSC[C@H](NC(=O)[C@H](CCCCN)NC(=O)[C@H](CCCCN)NC(=O)[C@H](CC(C)C)NC1=O)C(=O)N[C@@H](CCCNC(=N)N)C(=O)N[C@@H](CCCNC(=N)N)C(=O)N[C@@H](CC(=O)O)C(=O)N[C@@H](CO)C(=O)N[C@@H](CC(=O)O)C(=O)N3)NC(=O)[C@H]([C@@H](C)CC)NC2=O
360	–	–	–	–	6	2390	CC(=O)N[C@@H](CCC(N)=O)C(=O)N[C@@H](CCCNC(=N)N)C(=O)N[C@@H](CO)C(=O)N[C@H](C=O)CCCNC(=N)N (Ac-QRSR-aldehyde)
